The subject of series [1] is urinary electrolytes. Kind of series: Effect on urinary electrolytes (Experiment 8). In kind it is in vivo, Male SD-strain rats. Particulars: for Urine volume: 4 h, control 5.7 ± 0.6; for Na/K ratio: 4 h urine, control 6.1 ± 0.3. The procedure: Male SD-strain rats (6 to 7 weeks old, one group: 5-8 rats) were starved overnight, and a physiological saline solution (3 ml/100 g of body weight) was orally administered to the rats. One hour later, a solution of a test compound in a 0.25% CMC-physiological saline solution was administered orally to the rats in an amount of 3 ml per 100 g of body weight (Dose: 50, 500 or 1,000 mg/kg). Immediately after administration of the test compound, the rats were placed into metabolic cages (one rat per cage) and deprived of water and food for 4 hours. The urine samples which were excreted during a 4 hour period were collected. Sodium and potassium in the urine were estimated by a flame photometer (Hitachi Model-205).

In a further series the test system is Shay rat ulcers. Kind of series: Effect on Shay rat ulcers (pylorus-ligated). It counts as in vivo, Male SD-strain rats. Particulars: 17 h. The procedure:
Male SD-strain rats (6 to 7 weeks old) were starved for 48 hours and then the pylori were ligated. Immediately after ligation, a solution or suspension of a test compound in distilled water was administered orally into the stomachs in an amount of 0.2 ml per 100 g of body weight (Dose: 200 or 300 mg/kg). Seventeen hours after the administration of the test compound, the degree of ulceration in forestomach was examined according to the method of Takagi et al (Chem. Pharm. Bull., 11(10), pp. 1282-1290 (1963)) with a modified scoring system. Depending on the diameter of each lesions, the ulcers were classified into the following 4 grades. Ulcer index was calculated by the sum of the number of ulcers in each degree multiplied by respective ulcer score. Further, based on the ulcer index determined above, the preventive effect of the test compound on Shay rat ulcer was calculated by the following formula: [formula] (Results)

For series [2], the system named is mineralo-corticoid- or aldosterone-like effect. Particulars: in vivo; cited from earlier work.
The test system of the next series is human gastric ulcer. Particulars: in words, numerous clinical trials; cited from earlier work.
The subject of series [3] is experimentally-induced gastric ulceration. The conditions noted are these: in words, known; cited from earlier work.
Series [4] concerns urinary electrolytes. Kind of series: Effect on urine volume and urinary electrolytes (Experiment 7). Particulars: 50 mg/kg oral. It counts as in vivo, Male SD-strain rats. The method, then: Male SD-strain rats (6 to 7 weeks old) were starved overnight, and a physiological saline solution (3 ml/100 g of body weight) was orally administered to the rats. One hour later, a solution or suspension of a test compound in a 0.25% CMC-physiological saline solution was administered orally to the rats in an amount of 3 ml per 100 g of body weight (Dose: 50 and 500 mg/kg). Immediately after administration of the test compound, the rats were placed into metabolic cages (2 rats per cage) and deprived of water and food for 5 hours. The urine samples which were excreted during a 5 hour period were collected. Sodium and potassium in the urine were estimated by a flame photometer (Hitachi Model-205).

The next series relates to gastric mucous membrane. Kind of series: Protective effect on gastric mucous membrane (excised stomach in artificial gastric juice). Further details: species or system Male Sprague-Dawley rats. Particulars: 37° C., 60 min, hydrate; for Amount of tyrosine: control 2.42 ± 0.15. The procedure:
Protective effect of a test compound on gastric mucous membrane was examined by the method of Diago et al. (Yakugaku Zasshi, 101, 452-457(1981)). Male Sprague-Dawley rats (6-7 weeks old; one group: 5 rats) were fasted for 20 hours before the experiments. Water was given ad libitum and coprophagy was prevented by using cages with wide-mesh floors. The stomach was excised, opened along the greater curvature, rinsed in physiological saline solution, and the rumen was discarded. The stomach was incubated in 10 ml of an artificial gastric juice (100 mM HCl, 0.3% pepsin, 0.2% NaCl) containing a test compound, at 37° C. for 60 minutes. After the incubation, 2 ml of 7% trichloroacetic acid were added to 0.5 ml of medium, and the mixture was centrifuged. The amount of tyrosine in the supernatant was measured by using Folin-Ciocelteu reagent (J. gen. Physiol., 16, 59-63(1932)), and expressed as mg tyrosine/g tissue. The protective effect of the test compound on gastric mucous membrane was estimated in terms of "the inhibition of digestion of mucous membrane" which was calculated by the following formula: [formula] (Results)

A further series relates to gastric mucus secretion. The series is described as follows: Effect on gastric mucus secretion (alcian blue binding). It counts as in vivo, Male Sprague-Dawley rats. Particulars: 100 mg/kg oral, 1 h, hydrate. The method, then:
Stimulating effect of a test compound on gastric mucus secretion was examined by the method of Corne et al. (J. Physiol., 242, pp. 116-117(1974); J. Pharm. Pharmacol., 33, pp. 348-352(1981)). Male Sprague-Dawley rats (6-7 weeks old; one group: 6 rats) were fasted for 20 hours before the experiments. Water was given ad libitum and coprophagy was prevented by using cages with wide-mesh floors. A test compound dissolved or suspended in distilled water was administered orally to the rats at a dose of 100 mg/kg. One hour after the administration of the test compound, the stomachs were dissected, opened along the greater curvature, rinsed in ice-cold 0.25M sucrose, and the rumen was discarded. Then, the stomachs were incubated in 10 ml of a 0.15M sucrose-0.05M sodium acetate solution (pH 5.8) containing alcian blue (1 mg/ml), at room temperature for 1.5 hours. Finally, the stomachs were placed in 15 ml of a 0.5M magnesium chloride solution for 2 hours with occasional shaking and then removed, and the magnesium chloride solution was shaken briefly with 10 ml of diethyl ether. The optical density of the aqueous layer was read at 605 nm, and the degree of alcian blue binding was expressed as μg alcian blue/g of tissue. The stimulating effect of the test compound on gastric mucus secretion was estimated in terms of "the increase in alcian blue binding" which was calculated by the following formula: [formula] (Results)

A further series has as its system rats. The series is described as follows: Acute oral toxicity in rats (Experiment 10). In kind it is in vivo. The conditions noted are these: male SD-strain rats, 7 days, hydrate, 10080 min. The method, then:
After male SD-strain rats (6-7 weeks old) were starved for 20 hours, a solution or suspension of a test compound in distilled water was administered orally to the rats in an amount of one ml per 100 g of body weight. After administration of the test compound, the rats were allowed free access to water and food.

For the next series, the system named is stress-induced ulcers. The series is described as follows: Effect on stress-induced ulcers. In kind it is in vivo, Male ddY-strain mice. The conditions noted are these: 100 mg/kg oral, 16 h water immersion. The procedure: Male ddY-strain mice (4 weeks old) weighing about 20 g were starved for about 7 hours. A solution of a test compound in distilled water was administered orally to the mice in an amount of 0.1 ml per 10 g of body weight (Dose: 100 mg/kg). Immediately after administration of the test compound, the mice were placed in a stress cage and immersed to the level of the cervix in a water bath (24±0.5° C.) for 16 hours. Then, the stomach was removed and slightly inflated by injecting 1.2 ml of a 1% formalin solution to fix the inner layers of the gastric walls. The stomach was then incised along the greater carvature, and the number of ulcerations was examined.

Another series concerns aspirin-induced ulcers. The series is described as follows: Effect on aspirin-induced ulcers. It counts as in vivo, Male Donryu-strain rats. Particulars: p.o. 2 m mol./kg (847 mg/kg); aspirin 200 mg/kg. The procedure:
Male Donryu-strain rats (8 to 9 weeks old) were starved overnight, and a solution or suspension of a test compound in distilled water was administered orally into the stomachs in an amount of one ml per 100 g of body weight. Half an hour later, a suspension of aspirin in 0.25% CMC solution was administered orally to the rats in an amount of 0.5 ml per 100 g of body weight (Dose: 200 mg/kg). Four hours after the administration of aspirin, the rats were sacrificed and the stomachs were removed and inflated by injecting 10 ml of 1% formalin solution to fix the inner layers of the gastric walls. The stomach was then incised along the greater curvature and the lengths of the lesions were measured and summated to give ulcer index (in mm) for each animal. The preventive effect of the test compound on aspirin-induced ulcers were calculated by the following formula: [formula] (Results)

The subject of another series is pepsin secretion. The series is described as follows: Preventive effect on pepsin secretion in pylorus-ligated rats. It counts as in vivo, Male SD-strain rats. Particulars: 100 mg/kg oral, 5 h after administration, hydrate. The procedure: (§1) Preventive effect on acid and pepsin secretions
(§2) Male SD-strain rats (6 to 7 weeks old) were starved for 48 hours, and then the pylori were ligated. Immediately after ligation, a solution or suspension of a test compound in distilled water was administered orally into the stomachs in an amount of 0.2 ml per 100 g of body weight (Dose: 100 mg/kg). Five hours after said administration of the test compound, the rats were sacrificed and the stomachs were removed. The gastric contents were centrifuged at 2,500 rpm for 10 minutes and the gastric juice was collected as the supernatant. The concentration of pepsin in the gastric juice was determined by Anson's method (c.f., J. Gen. Physiol., 22, pp. 77-89 (1938)) using hemoglobin as the substrate, and the preventive effect of the test compound on the pepsin secretion was estimated in terms of "decrease in pepsin concentration" according to the following formula: [formula]

For a further series, the system named is gastric acid secretion. Kind of series: Preventive effect on gastric acid secretion in pylorus-ligated rats. It counts as in vivo, Male SD-strain rats. The conditions noted are these: 100 mg/kg oral, 5 h after administration, hydrate. The method, then:
as §1, §2
On the other hand, the concentration of free acid in the gastric juice was determined by titrating said gastric juice to pH 7.0 with 0.1N NaOH, and the preventive effect of the test compound on the gastric acid secretion was estimated in terms of "the decrease in acidity of gastric juice" according to the following formula: [formula] (Results)

Setting [5] is: 1 mg/ml in artificial gastric juice.
Where [6] appears, read: 4 mg/ml in artificial gastric juice.

We go through two molecules from patent US4529602A, “Method for treatment or prophylaxis of gastro-intestinal disease” (priority 1981, dated 1985).

Counter-ions that a name gives are not always drawn.

For the molecule `CC1(C)[C@@H](OC(=O)CCC(=O)O)CC[C@]2(C)[C@H]3C(=O)C=C4[C@@H]5C[C@@](C)(C(=O)O)CC[C@]5(C)CC[C@@]4(C)[C@]3(C)CC[C@@H]12` [Carbenoxolone disodium salt, 3-β-hydroxy-11-oxoolean-12-en-30-oic acid hydrogen succinate, reference compound], the Urine volume with urinary electrolytes [1] (50 mg/kg p.o.) stood at 5.2 ± 0.3 mL; with urinary electrolytes [4] (5 h, 2 rats per cage, control 12.3) it was 9.3 mL. Moreover, the Na/K ratio with urinary electrolytes [1] (50 mg/kg p.o., * = significantly different (p < 0.01) from control) turned out to be 3.7 ± 0.3. In addition, in the series with Shay rat ulcers (300 mg/kg oral), the “Preventive effect on Shay rat ulcers” value is given as 40%. In addition, in [2], the aldosterone-like side effect result is “has an aldosterone-like side effect”. Moreover, the “gastric anti-ulcer effect in human gastric ulcer patients” value in the series with human gastric ulcer is on record as “effective gastric anti-ulcer agent”. Besides, in series [3], the “protection from experimentally-induced gastric ulceration” value was “known to protect animals from experimentally-induced gastric ulceration”. Further, in the series with urinary electrolytes [4] (5 h urine, control 5.8), the Na/K came to 3.2.

Take `CC(C)c1cc2c(cc1S(=O)(=O)O)[C@@]1(C)CCC[C@@](C)(C(=O)O)[C@@H]1CC2` [Sulfodehydroabietic acid disodium salt, 1,4a-dimethyl-1-carboxy-6-sulfo-7-isopropyl-1,2,3,4,4a,9,10,10a-octahydro-phenanthrene disodium salt 81/2 hydrate]: the results for the Urine volume in the series with urinary electrolytes [1] (500 mg/kg p.o.) and in the series on urinary electrolytes [1] (1000 mg/kg p.o.) were 4.8 ± 0.4 mL and 4.3 ± 0.3 mL, respectively. Besides, the Na/K ratio came to 7.4 ± 1.0 in the series on urinary electrolytes [1] (500 mg/kg p.o.) and 5.9 ± 0.4 with urinary electrolytes [1] (1000 mg/kg p.o.). For the same molecule, the Amount of tyrosine in the series on gastric mucous membrane (setting [5]) amounted to 1.64 ± 0.12 mg/g tissue; with gastric mucous membrane (setting [6]) it was 0.82 ± 0.07 mg/g tissue. Also, the “Inhibition (%) of digestion of mucous membrane” value turned out to be 32% in the series with gastric mucous membrane (setting [5]) and 66% in the series with gastric mucous membrane (setting [6]). In the series on gastric mucus secretion (control (water) 198.5 ± 6.4), this molecule registered an Alcian blue binding of 247.7 ± 18.4 μg/g tissue. In addition, the “Increase (%) in alcian blue binding” value in the series with gastric mucus secretion stood at 25%. In addition, the “Preventive effect on Shay rat ulcers” value in the series on Shay rat ulcers (200 mg/kg oral, hydrate) worked out at 93%. Also, the LD50 in the series with rats was more than 2000 mg/kg. In addition, the “decrease in the number of stress-induced ulcers” value with stress-induced ulcers is 22%. For the same molecule, in the series on aspirin-induced ulcers, the “Preventive effect on aspirin-induced ulcers” value is given as 82%. Further, in the series on pepsin secretion, the “Decrease (%) in pepsin concentration” value is 92%. In addition, in the series with gastric acid secretion, the “Decrease (%) in acidity of gastric juice” value was 54%.

For orientation: LD50 means the dose at which mortality reaches 50%. Lower therefore signals greater toxicity.
